Test results reported in US8802597B2, “Herbicidal pyrimidines” (E I du Pont de Nemours and Company, priority 2003, dated 2014).

Legend:
Type in all cases: in vivo
[1] = test system: water seeded rice seedlings (Oryza sativa cv. ‘Japonica-M202’); test: Test E flooded paddy water application; details: Flood, 21 days, scale 0 to 100 (0 no effect, 100 complete control); for Plant response rating, Rice, Water Seeded: 16 g ai/ha
How it was run: (§1)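 Greenhouse pots of Tama silt loam with weeds and rice at 2.0–2.5-leaf stage, flooded to 3 cm; compounds applied directly into paddy water, depth maintained. Visual rating versus untreated controls after 21 days, 0 (no effect) to 100 (complete control); 29.5/26.7 °C, 16-h photoperiod.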

[2] = test system: bearded (brdd.) sprangletop (Leptochloa fusca ssp. fascicularis); test: Test E flooded paddy water application; details: Flood, 21 days, scale 0 to 100 (0 no effect, 100 complete control); for Plant response rating, Sprangletop, Brdd.: 16 g ai/ha
How it was run: as §1

[3] = test system: ducksalad (Heteranthera limosa); test: Test E flooded paddy water application; details: Flood, 21 days, scale 0 to 100 (0 no effect, 100 complete control); for Plant response rating, Ducksalad: 16 g ai/ha
How it was run: as §1

[4] = test system: barnyardgrass (Echinochloa crus-galli); test: Test E flooded paddy water application; details: Flood, 21 days, scale 0 to 100 (0 no effect, 100 complete control); for Plant response rating, Barnyardgrass: 16 g ai/ha
How it was run: as §1

[5] = test system: purple redstem (Ammannia coccinea); test: Test E flooded paddy water application; details: Flood, 21 days, scale 0 to 100 (0 no effect, 100 complete control); for Plant response rating, Redstem: 16 g ai/ha
How it was run: as §1

[6] = test system: transplanted rice seedlings (Oryza sativa cv. ‘Japonica-M202’); test: Test E flooded paddy water application; details: Flood, 21 days, scale 0 to 100 (0 no effect, 100 complete control); for Plant response rating, Rice, Transplanted: 16 g ai/ha
How it was run: as §1

[7] = test system: early watergrass (Echinochloa oryzoides); test: Test E flooded paddy water application; details: Flood, 21 days, scale 0 to 100 (0 no effect, 100 complete control); for Plant response rating, Watergrass, Early: 16 g ai/ha
How it was run: as §1

[8] = test system: junglerice (Echinochloa colona); test: Test E flooded paddy water application; details: Flood, 21 days, scale 0 to 100 (0 no effect, 100 complete control); for Plant response rating, Junglerice: 16 g ai/ha
How it was run: as §1

[9] = test system: rice flatsedge (Cyperus iria); test: Test E flooded paddy water application; details: Flood, 21 days, scale 0 to 100 (0 no effect, 100 complete control); for Plant response rating, Flatsedge, Rice: 16 g ai/ha
How it was run: as §1

[10] = test system: smallflower umbrella sedge (Cyperus difformis); test: Test E flooded paddy water application; details: Flood, 21 days, scale 0 to 100 (0 no effect, 100 complete control); for Plant response rating, Sedge, Umbrella: 16 g ai/ha
How it was run: as §1

[11] = test system: late watergrass (Echinochloa oryzicola); test: Test E flooded paddy water application; details: Flood, 21 days, scale 0 to 100 (0 no effect, 100 complete control); for Plant response rating, Watergrass, Late: 16 g ai/ha
How it was run: as §1

[12] = test system: velvetleaf (Abutilon theophrasti); test: Test A pre/postemergence
How it was run: (§2)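 Pre/post greenhouse screen; loam/sand soil; solvent + surfactant formulation; pre = directed soil spray at planting, post = 1–2 leaf plants, 2–10 cm; ~10 d; visual 0–100 rating vs untreated.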

[13] = test system: barnyardgrass (Echinochloa crus-galli); test: Test A pre/postemergence
How it was run: as §2

[14] = test system: crabgrass (Digitaria sanguinalis); test: Test A pre/postemergence
How it was run: as §2

[15] = test system: giant foxtail (Setaria faberi); test: Test A pre/postemergence
How it was run: as §2

[16] = test system: morningglory (Ipomoea spp.); test: Test A pre/postemergence
How it was run: as §2

[17] = test system: redroot pigweed (Amaranthus retroflexus); test: Test A pre/postemergence
How it was run: as §2

[18] = Postemergence, 125 g ai/ha, 0 to 100 scale (0 no effect, 100 complete control)
[19] = Postemergence, 500 g ai/ha, 0 to 100 scale (0 no effect, 100 complete control)
[20] = Preemergence, 125 g ai/ha, 0 to 100 scale where 0 is no effect and 100 is complete control, approximately ten days
[21] = Preemergence, 500 g ai/ha, 0 to 100 scale where 0 is no effect and 100 is complete control, approximately ten days

CCOC(=O)c1nc(-c2ccc(Cl)c(Cl)c2)nc(N)c1Cl [Compound 73]
65: Plant response rating, Morningglory [16, 19]
40: Plant response rating, Velvetleaf [12, 21]
35: Sedge, Umbrella plant response rating ([10]; 125 g ai/ha) | Plant response rating, Velvetleaf [12, 20] | Plant response rating, Crabgrass [14, 19] | Plant response rating, Crabgrass [14, 21]
80: Plant response rating, Pigweed [17, 19]
5: Plant response rating, Barnyardgrass [13, 19] | Plant response rating, Barnyardgrass [13, 20] | Plant response rating, Crabgrass [14, 20]
75: Plant response rating, Ducksalad [3] | Plant response rating, Velvetleaf [12, 19] | Plant response rating, Pigweed [17, 18]
60: Plant response rating, Pigweed [17, 21]
70: Sprangletop, Brdd. plant response rating ([2]; 250 g ai/ha) | Plant response rating, Velvetleaf [12, 18]
85: Sedge, Umbrella plant response rating ([10]; 250 g ai/ha)
30: Plant response rating, Barnyardgrass [13, 21]
90: Barnyardgrass plant response rating ([4]; 125 g ai/ha) | Redstem plant response rating ([5]; 64 g ai/ha)
0: Rice, Water Seeded plant response rating ([1]; 32 g ai/ha) | Rice, Water Seeded plant response rating ([1]; 64 g ai/ha) | Rice, Water Seeded plant response rating ([1]; 125 g ai/ha) | Rice, Water Seeded plant response rating ([1]; 250 g ai/ha) | Plant response rating, Rice, Water Seeded [1] | Sprangletop, Brdd. plant response rating ([2]; 32 g ai/ha) | Sprangletop, Brdd. plant response rating ([2]; 64 g ai/ha) | Plant response rating, Sprangletop, Brdd. [2] | Barnyardgrass plant response rating ([4]; 64 g ai/ha) | Plant response rating, Barnyardgrass [4] | Redstem plant response rating ([5]; 32 g ai/ha) | Plant response rating, Redstem [5] | Rice, Transplanted plant response rating ([6]; 32 g ai/ha) | Rice, Transplanted plant response rating ([6]; 64 g ai/ha) | Rice, Transplanted plant response rating ([6]; 125 g ai/ha) | Rice, Transplanted plant response rating ([6]; 250 g ai/ha) | Plant response rating, Rice, Transplanted [6] | Watergrass, Early plant response rating ([7]; 32 g ai/ha) | Watergrass, Early plant response rating ([7]; 64 g ai/ha) | Watergrass, Early plant response rating ([7]; 125 g ai/ha) | Watergrass, Early plant response rating ([7]; 250 g ai/ha) | Plant response rating, Watergrass, Early [7] | Junglerice plant response rating ([8]; 32 g ai/ha) | Junglerice plant response rating ([8]; 64 g ai/ha) | Junglerice plant response rating ([8]; 125 g ai/ha) | Junglerice plant response rating ([8]; 250 g ai/ha) | Plant response rating, Junglerice [8] | Flatsedge, Rice plant response rating ([9]; 32 g ai/ha) | Flatsedge, Rice plant response rating ([9]; 64 g ai/ha) | Plant response rating, Flatsedge, Rice [9] | Sedge, Umbrella plant response rating ([10]; 32 g ai/ha) | Sedge, Umbrella plant response rating ([10]; 64 g ai/ha) | Plant response rating, Sedge, Umbrella [10] | Watergrass, Late plant response rating ([11]; 32 g ai/ha) | Watergrass, Late plant response rating ([11]; 64 g ai/ha) | Watergrass, Late plant response rating ([11]; 125 g ai/ha) | Plant response rating, Watergrass, Late [11] | Plant response rating, Barnyardgrass [13, 18] | Plant response rating, Foxtail, Giant [15, 20] | Plant response rating, Morningglory [16, 20] | Plant response rating, Morningglory [16, 21]
50: Sprangletop, Brdd. plant response rating ([2]; 125 g ai/ha) | Plant response rating, Morningglory [16, 18]
15: Plant response rating, Crabgrass [14, 18] | Plant response rating, Foxtail, Giant [15, 18] | Plant response rating, Foxtail, Giant [15, 21] | Plant response rating, Pigweed [17, 20]
100: Ducksalad plant response rating ([3]; 32 g ai/ha) | Ducksalad plant response rating ([3]; 64 g ai/ha) | Ducksalad plant response rating ([3]; 125 g ai/ha) | Ducksalad plant response rating ([3]; 250 g ai/ha) | Barnyardgrass plant response rating ([4]; 250 g ai/ha) | Redstem plant response rating ([5]; 125 g ai/ha) | Redstem plant response rating ([5]; 250 g ai/ha)
20: Watergrass, Late plant response rating ([11]; 250 g ai/ha)
45: Flatsedge, Rice plant response rating ([9]; 250 g ai/ha) | Plant response rating, Foxtail, Giant [15, 19]

COC(=O)c1nc(-c2ccc(C)cc2)nc(N)c1Cl [Compound 84]
65: Plant response rating, Pigweed [17, 19]
20: Barnyardgrass plant response rating ([4]; 125 g ai/ha) | Redstem plant response rating ([5]; 32 g ai/ha) | Redstem plant response rating ([5]; 64 g ai/ha) | Rice, Transplanted plant response rating ([6]; 250 g ai/ha) | Watergrass, Early plant response rating ([7]; 125 g ai/ha) | Watergrass, Late plant response rating ([11]; 250 g ai/ha) | Plant response rating, Foxtail, Giant [15, 19] | Plant response rating, Foxtail, Giant [15, 21] | Plant response rating, Morningglory [16, 19]
10: Watergrass, Early plant response rating ([7]; 64 g ai/ha) | Plant response rating, Crabgrass [14, 19]
15: Plant response rating, Velvetleaf [12, 20] | Plant response rating, Crabgrass [14, 21]
50: Junglerice plant response rating ([8]; 125 g ai/ha) | Junglerice plant response rating ([8]; 250 g ai/ha)
25: Plant response rating, Flatsedge, Rice [9] | Plant response rating, Barnyardgrass [13, 21]
30: Rice, Water Seeded plant response rating ([1]; 250 g ai/ha) | Watergrass, Early plant response rating ([7]; 250 g ai/ha)
75: Plant response rating, Velvetleaf [12, 18]
85: Barnyardgrass plant response rating ([4]; 250 g ai/ha)
0: Rice, Water Seeded plant response rating ([1]; 32 g ai/ha) | Rice, Water Seeded plant response rating ([1]; 64 g ai/ha) | Rice, Water Seeded plant response rating ([1]; 125 g ai/ha) | Plant response rating, Rice, Water Seeded [1] | Sprangletop, Brdd. plant response rating ([2]; 32 g ai/ha) | Sprangletop, Brdd. plant response rating ([2]; 64 g ai/ha) | Sprangletop, Brdd. plant response rating ([2]; 125 g ai/ha) | Plant response rating, Sprangletop, Brdd. [2] | Barnyardgrass plant response rating ([4]; 32 g ai/ha) | Barnyardgrass plant response rating ([4]; 64 g ai/ha) | Plant response rating, Barnyardgrass [4] | Plant response rating, Redstem [5] | Rice, Transplanted plant response rating ([6]; 32 g ai/ha) | Rice, Transplanted plant response rating ([6]; 64 g ai/ha) | Rice, Transplanted plant response rating ([6]; 125 g ai/ha) | Plant response rating, Rice, Transplanted [6] | Watergrass, Early plant response rating ([7]; 32 g ai/ha) | Plant response rating, Watergrass, Early [7] | Junglerice plant response rating ([8]; 32 g ai/ha) | Junglerice plant response rating ([8]; 64 g ai/ha) | Plant response rating, Junglerice [8] | Watergrass, Late plant response rating ([11]; 32 g ai/ha) | Watergrass, Late plant response rating ([11]; 64 g ai/ha) | Watergrass, Late plant response rating ([11]; 125 g ai/ha) | Plant response rating, Watergrass, Late [11] | Plant response rating, Barnyardgrass [13, 20] | Plant response rating, Crabgrass [14, 18] | Plant response rating, Crabgrass [14, 20] | Plant response rating, Foxtail, Giant [15, 18] | Plant response rating, Foxtail, Giant [15, 20] | Plant response rating, Morningglory [16, 20] | Plant response rating, Morningglory [16, 21] | Plant response rating, Pigweed [17, 20]
35: Flatsedge, Rice plant response rating ([9]; 32 g ai/ha)
60: Flatsedge, Rice plant response rating ([9]; 64 g ai/ha) | Flatsedge, Rice plant response rating ([9]; 125 g ai/ha) | Plant response rating, Pigweed [17, 18]
55: Plant response rating, Barnyardgrass [13, 18]
5: Plant response rating, Morningglory [16, 18]
70: Redstem plant response rating ([5]; 125 g ai/ha) | Plant response rating, Sedge, Umbrella [10] | Plant response rating, Velvetleaf [12, 21]
90: Sedge, Umbrella plant response rating ([10]; 125 g ai/ha) | Plant response rating, Velvetleaf [12, 19]
80: Flatsedge, Rice plant response rating ([9]; 250 g ai/ha) | Sedge, Umbrella plant response rating ([10]; 32 g ai/ha) | Sedge, Umbrella plant response rating ([10]; 64 g ai/ha) | Plant response rating, Barnyardgrass [13, 19] | Plant response rating, Pigweed [17, 21]
100: Ducksalad plant response rating ([3]; 32 g ai/ha) | Ducksalad plant response rating ([3]; 64 g ai/ha) | Ducksalad plant response rating ([3]; 125 g ai/ha) | Ducksalad plant response rating ([3]; 250 g ai/ha) | Plant response rating, Ducksalad [3] | Redstem plant response rating ([5]; 250 g ai/ha) | Sedge, Umbrella plant response rating ([10]; 250 g ai/ha)
40: Sprangletop, Brdd. plant response rating ([2]; 250 g ai/ha)
